These molecules were tested against human APJ receptor (Homo sapiens (Human), UniProt P35414) (assay: [35S]GTPγS binding assay on membranes from CHO cells stably expressing human APJ receptor). Details: read-out: Activity hAPJ SPA EC50 IP.
Type: biochemical
Procedure, shortened: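 Membranes from CHO cells stably expressing human APJ incubated with ligand, 0.2 nM [35S]GTPγS and WGA SPA beads in HEPES pH 7.5 with 5 mM MgCl2, 200 mM NaCl, 3 μM GDP, 90 min at RT. Nonspecific binding defined with 100 μM GTPγS; EC50 by non-linear regression.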

Sequence of human APJ receptor (P35414 whole entry): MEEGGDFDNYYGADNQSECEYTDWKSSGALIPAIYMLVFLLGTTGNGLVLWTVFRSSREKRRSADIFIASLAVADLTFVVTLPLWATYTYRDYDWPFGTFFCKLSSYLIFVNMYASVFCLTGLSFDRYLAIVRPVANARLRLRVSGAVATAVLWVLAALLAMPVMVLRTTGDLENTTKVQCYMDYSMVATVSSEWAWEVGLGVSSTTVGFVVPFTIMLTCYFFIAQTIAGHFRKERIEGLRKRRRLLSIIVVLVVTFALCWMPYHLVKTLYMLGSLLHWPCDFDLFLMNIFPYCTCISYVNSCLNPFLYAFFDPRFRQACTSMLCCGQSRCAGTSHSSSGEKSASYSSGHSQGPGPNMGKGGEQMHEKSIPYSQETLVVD

Molecule | EC50 [nM]
COc1cccc(OC)c1-n1c(NS(=O)(=O)CCc2ccc(F)cc2C#N)nnc1[C@@H]1CCOC1 [Example 345.0, (S)-2-(2-cyano-4-fluorophenyl)-N-(4-(2,6-dimethoxyphenyl)-5-(tetrahydrofuran-3-yl)-4H-1,2,4-triazol-3-yl) ethanesulfonamide] | 100
COc1cccc(OC)c1-n1c(NS(=O)(=O)CCc2ncc(Cl)cn2)nnc1[C@@H]1CCOC1 [Example 386.0, 2-(5-chloro-2-pyrimidinyl)-N-(4-(2,6-dimethoxyphenyl)-5-((3S)-tetrahydro-3-furanyl)-4H-1,2,4-triazol-3-yl)ethanesulfonamide] | 81
COc1cccc(OC)c1-n1c(NS(=O)(=O)CCc2ncc(Cl)cn2)nnc1[C@@H]1CCCO1 [Example 388.0, 2-(5-chloro-2-pyrimidinyl)-N-(4-(2,6-dimethoxyphenyl)-5-((2S)-tetrahydro-2-furanyl)-4H-1,2,4-triazol-3-yl)ethanesulfonamide] | 9.8
COc1cccc(OC)c1-n1c(NS(=O)(=O)CCc2ncc(Cl)cn2)nnc1[C@H]1CCCO1 [Example 389.0, 2-(5-chloro-2-pyrimidinyl)-N-(4-(2,6-dimethoxyphenyl)-5-((2R)-tetrahydro-2-furanyl)-4H-1,2,4-triazol-3-yl)ethanesulfonamide] | 96
(1R,2)S-1-(5-chloropyrimidin-2-yl)-N-(5-((S)-5,5-dimethyltetrahydrofuran-2-yl)-4-(tetrahydro-2H-pyran-4-yl)-4H-1,2,4-triazol-3-yl)-1-methoxypropane-2-sulfonamide or (1R,2S)-1-(5-chloropyrimidin-2-yl)-N-(5-((R)-5,5-dimethyltetrahydrofuran-2-yl)-4-(tetrahydro-2H-pyran-4-yl)-4H-1,2,4-triazol-3-yl)-1-methoxypropane-2-sulfonamide [Example 222.0] | 740
(1R,2)S-N-(4-(2,6-dimethoxyphenyl)-5-((R)-1,4-dioxan-2-yl)-4H-1,2,4-triazol-3-yl)-1-methoxy-1-(5-methylpyrimidin-2-yl)propane-2-sulfonamide or (1R,2S)-N-(4-(2,6-dimethoxyphenyl)-5-((S)-1,4-dioxan-2-yl)-4H-1,2,4-triazol-3-yl)-1-methoxy-1-(5-methylpyrimidin-2-yl)propane-2-sulfonamide [Example 201.0] | 31
(1R,2S)-1-(5-chloro-2-pyridinyl)-N-(4-(1,3-dimethoxy-2-propanyl)-5-((2R,5R)-5-methyltetrahydro-2-furanyl)-4H-1,2,4-triazol-3-yl)-1-methoxy-2-propanesulfonamide or (1R,2S)-1-(5-chloro-2-pyridinyl)-N-(4-(1,3-dimethoxy-2-propanyl)-5-((2S,5S)-5-methyltetrahydro-2-furanyl)-4H-1,2,4-triazol-3-yl)-1-methoxy-2-propanesulfonamide [Example 380.0] | 60
(1R,2S)-1-(5-chloro-2-pyridinyl)-N-(4-(1,3-dimethoxy-2-propanyl)-5-((2R,5R)-5-methyltetrahydro-2-furanyl)-4H-1,2,4-triazol-3-yl)-1-methoxy-2-propanesulfonamide or (1R,2S)-1-(5-chloro-2-pyridinyl)-N-(4-(1,3-dimethoxy-2-propanyl)-5-((2S,5S)-5-methyltetrahydro-2-furanyl)-4H-1,2,4-triazol-3-yl)-1-methoxy-2-propanesulfonamide [Example 381.0] | 2.1
(1R,2S)-1-(5-chloro-2-pyrimidinyl)-N-(4-(1,3-dimethoxy-2-propanyl)-5-((2R)-5,5-dimethyltetrahydro-2-furanyl)-4H-1,2,4-triazol-3-yl)-1-methoxy-2-propanesulfonamide or (1R,2S)-1-(5-chloro-2-pyrimidinyl)-N-(4-(1,3-dimethoxy-2-propanyl)-5-((2S)-5,5-dimethyltetrahydro-2-furanyl)-4H-1,2,4-triazol-3-yl)-1-methoxy-2-propanesulfonamide [Example 307.0] | 14
(1R,2S)-1-(5-chloro-2-pyrimidinyl)-N-(4-(1,3-dimethoxy-2-propanyl)-5-((2R)-5,5-dimethyltetrahydro-2-furanyl)-4H-1,2,4-triazol-3-yl)-1-methoxy-2-propanesulfonamide or (1R,2S)-1-(5-chloro-2-pyrimidinyl)-N-(4-(1,3-dimethoxy-2-propanyl)-5-((2S)-5,5-dimethyltetrahydro-2-furanyl)-4H-1,2,4-triazol-3-yl)-1-methoxy-2-propanesulfonamide [Example 308.0] | 410
(1R,2S)-1-(5-chloro-2-pyrimidinyl)-N-(4-(1,3-dimethoxy-2-propanyl)-5-((2S,5S)-5-methyltetrahydro-2-furanyl)-4H-1,2,4-triazol-3-yl)-1-methoxy-2-propanesulfonamide or (1R,2S)-1-(5-chloro-2-pyrimidinyl)-N-(4-(1,3-dimethoxy-2-propanyl)-5-((2R,5R)-5-methyltetrahydro-2-furanyl)-4H-1,2,4-triazol-3-yl)-1-methoxy-2-propanesulfonamide [Example 252.0] | 250
(1R,2S)-1-(5-chloro-2-pyrimidinyl)-N-(4-(1,3-dimethoxy-2-propanyl)-5-((2S,5S)-5-methyltetrahydro-2-furanyl)-4H-1,2,4-triazol-3-yl)-1-methoxy-2-propanesulfonamide or (1R,2S)-1-(5-chloro-2-pyrimidinyl)-N-(4-(1,3-dimethoxy-2-propanyl)-5-((2R,5R)-5-methyltetrahydro-2-furanyl)-4H-1,2,4-triazol-3-yl)-1-methoxy-2-propanesulfonamide [Example 253.0] | 6.3
(1R,2S)-1-(5-chloro-2-pyrimidinyl)-N-(4-(1,3-dimethoxy-2-propanyl)-5-((3S)-tetrahydro-3-furanyl)-4H-1,2,4-triazol-3-yl)-1-methoxy-2-propanesulfonamide or (1R,2S)-1-(5-chloro-2-pyrimidinyl)-N-(4-(1,3-dimethoxy-2-propanyl)-5-((3R)-tetrahydro-3-furanyl)-4H-1,2,4-triazol-3-yl)-1-methoxy-2-propanesulfonamide [Example 305.0] | 740
(1R,2S)-1-(5-chloro-2-pyrimidinyl)-N-(4-(1,3-dimethoxy-2-propanyl)-5-((3S)-tetrahydro-3-furanyl)-4H-1,2,4-triazol-3-yl)-1-methoxy-2-propanesulfonamide or (1R,2S)-1-(5-chloro-2-pyrimidinyl)-N-(4-(1,3-dimethoxy-2-propanyl)-5-((3R)-tetrahydro-3-furanyl)-4H-1,2,4-triazol-3-yl)-1-methoxy-2-propanesulfonamide [Example 306.0] | 900
(1R,2S)-1-(5-chloropyridin-2-yl)-N-(4-(2,6-dimethoxyphenyl)-5-((R)-1,4-dioxan-2-yl)-4H-1,2,4-triazol-3-yl)-1-methoxypropane-2-sulfonamide or (1R,2S)-1-(5-chloropyridin-2-yl)-N-(4-(2,6-dimethoxyphenyl)-5-((S)-1,4-dioxan-2-yl)-4H-1,2,4-triazol-3-yl)-1-methoxypropane-2-sulfonamide [Example 264.0] | 1.2
(1R,2S)-1-(5-chloropyrimidin-2-yl)-1-methoxy-N-(4-(1-methylcyclopropyl)-5-((2S,5S)-5-methyltetrahydrofuran-2-yl)-4H-1,2,4-triazol-3-yl)propane-2-sulfonamide or (1R,2S)-1-(5-chloropyrimidin-2-yl)-1-methoxy-N-(4-(1-methylcyclopropyl)-5-((2R,5R)-5-methyltetrahydrofuran-2-yl)-4H-1,2,4-triazol-3-yl)propane-2-sulfonamide [Example 199.0] | 2.7
(1R,2S)-1-(5-chloropyrimidin-2-yl)-1-methoxy-N-(4-(1-methylcyclopropyl)-5-((2S,5S)-5-methyltetrahydrofuran-2-yl)-4H-1,2,4-triazol-3-yl)propane-2-sulfonamide or (1R,2S)-1-(5-chloropyrimidin-2-yl)-1-methoxy-N-(4-(1-methylcyclopropyl)-5-((2R,5R)-5-methyltetrahydrofuran-2-yl)-4H-1,2,4-triazol-3-yl)propane-2-sulfonamide [Example 200.0] | 290
(1R,2S)-1-(5-chloropyrimidin-2-yl)-1-methoxy-N-(5-((2S,5S)-5-methyltetrahydrofuran-2-yl)-4-(tetrahydro-2H-pyran-4-yl)-4H-1,2,4-triazol-3-yl)propane-2-sulfonamide or (1R,2S)-1-(5-chloropyrimidin-2-yl)-1-methoxy-N-(5-((2R,5R)-5-methyltetrahydrofuran-2-yl)-4-(tetrahydro-2H-pyran-4-yl)-4H-1,2,4-triazol-3-yl)propane-2-sulfonamide [Example 226.0] | 1400
(1R,2S)-1-(5-chloropyrimidin-2-yl)-1-methoxy-N-(5-((2S,5S)-5-methyltetrahydrofuran-2-yl)-4-tetrahydro-2H-pyran-4-yl)-4H-1,2,4-triazol-3-yl)propane-2-sulfonamide or (1R,2S)-1-(5-chloropyrimidin-2-yl)-1-methoxy-N-(5-((2R,5R)-5-methyltetrahydrofuran-2-yl)-4-(tetrahydro-2H-pyran-4-yl)-4H-1,2,4-triazol-3-yl)propane-2-sulfonamide [Example 225.0] | 70
(1R,2S)-1-(5-chloropyrimidin-2-yl)-N-(4-(2,6-dimethoxyphenyl)-5-((3aR,6aR)-hexahydro-3aH-cyclopenta[b]furan-3a-yl)-4H-1,2,4-triazol-3-yl)-1-methoxypropane-2-sulfonamide or (1R,2S)-1-(5-chloropyrimidin-2-yl)-N-(4-(2,6-dimethoxyphenyl)-5-((3aS,6aS)-hexahydro-3aH-cyclopenta[b]furan-3a-yl)-4H-1,2,4-triazol-3-yl)-1-methoxypropane-2-sulfonamide [Example 346.0] | 780
